Source: patent publication US20250152719A1, “FUSED IMIDE DERIVATIVE” (Chia Tai Tianqing Pharmaceutical Group Co., Ltd., priority 2021, published 2025)

Legend:
BTK(WT) kinase = BTK(WT) kinase (Homo sapiens (Human), UniProt Q06187); test: Inhibitory activity on BTK(WT) kinase; assay type: biochemical; settings: ATP 10 μM
Experimental: (§1) The Assay Buffer was prepared, and the composition of the Assay Buffer was 50 mM Hepes (Gibco, 15630), 10 mM MgCl2, 2 mM DTT, 1 mM EGTA, and 0.010% Tween 20. BTK(WT) kinase (Life, PR5442A), ATP (Sigma, A7699), and ULight-poly GT (PE, TRF0100-M) working solutions were prepared using the Assay Buffer. EDTA and Eu-labeled anti-phosphotyrosine (PT66) antibody (PE, AD0069) working solutions were prepared using the Detection Buffer (PE, CR97-100). 6 μL of BTK(WT) kinase at the corresponding concentration (final concentration: 0.003 ng/L) was added to the compound groups and the control group, while 6 μL of the Assay Buffer was added to the blank group, and then the compounds (with the concentration set to 1000 nM at the maximum, 4-fold dilution, 7 concentration gradients) were each added using a nanoliter pipettor. The mixture was incubated at room temperature for 30 min, and then 4 μL of the mixture of ATP (final concentration: 10 μM) and ULight-poly GT (final concentration: 100 nM) was added. After incubation at room temperature for 2 h, 5 μL of EDTA (final concentration: 10 mM) was added to stop the reaction, and finally 5 μL of antibody (final concentration: 2 nM) was added. After incubation at room temperature for 1 h, signal values were detected at 665/615 nM, the four-parameter analysis was performed, the dose-response curves were fit, and IC50 was calculated.

BTK(C481S) kinase = BTK(C481S) kinase (Homo sapiens (Human), UniProt Q06187, C481S); test: Inhibitory activity on BTK(C481S) kinase; assay type: biochemical; settings: ATP 10 μM
Chain of BTK(C481S) kinase (Q06187 whole entry C481S): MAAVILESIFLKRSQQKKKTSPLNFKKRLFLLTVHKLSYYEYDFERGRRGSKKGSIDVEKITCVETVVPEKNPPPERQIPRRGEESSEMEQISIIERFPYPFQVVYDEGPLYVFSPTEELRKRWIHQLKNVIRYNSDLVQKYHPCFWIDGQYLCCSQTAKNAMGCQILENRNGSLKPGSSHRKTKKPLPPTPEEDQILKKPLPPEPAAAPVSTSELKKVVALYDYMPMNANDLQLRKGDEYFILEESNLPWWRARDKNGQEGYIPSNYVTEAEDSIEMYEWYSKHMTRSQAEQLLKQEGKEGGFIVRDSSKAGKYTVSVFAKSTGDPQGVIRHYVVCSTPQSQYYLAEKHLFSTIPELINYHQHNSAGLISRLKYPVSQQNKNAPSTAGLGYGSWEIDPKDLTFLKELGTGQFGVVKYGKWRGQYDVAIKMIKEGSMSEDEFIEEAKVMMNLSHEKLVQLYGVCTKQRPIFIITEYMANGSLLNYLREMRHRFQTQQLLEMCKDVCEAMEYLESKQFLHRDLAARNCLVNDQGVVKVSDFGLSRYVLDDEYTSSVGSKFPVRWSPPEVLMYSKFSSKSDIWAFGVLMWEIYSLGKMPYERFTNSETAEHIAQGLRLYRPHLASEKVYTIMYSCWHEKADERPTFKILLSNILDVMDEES
Experimental: as §1, with “BTK(C481S)” for “BTK(WT)”, “(Carna Biosciences, 08-547),” for “(Life, PR5442A),”, “Buffer.” for “Buffer (PE, CR97-100).”, “0.005 ng/μL)” for “0.003 ng/L)”, “were” for “were each”

BTK = BTK (Homo sapiens (Human), UniProt Q06187); test: BTK degradation in OCI-LY10 cells (Total-BTK HTRF kit); assay type: cell-based; settings: 24 (or 6) h incubation; for DC50: DC50 = concentration when degradation rate reaches 50%, read-out: OCI-LY10 cell BTK degradation DC50; for Dmax: OCI-Ly10, OCI-LY10 cells
Chain of BTK (Q06187 whole entry): as the sequence (Q06187 whole entry C481S) above, with S481C counted along it
In short: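 OCI-LY10 cells seeded overnight, then treated with compound at 100 nM-0.098 nM in duplicate for 24 (or 6) h. Lysates probed by Total-BTK HTRF (d2/Eu cryptate antibodies, overnight, room temperature), read at 665/620 nm; DC50 and Dmax from four-parameter dose-response fits.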

EGFR kinase = EGFR kinase (Homo sapiens (Human), UniProt P00533); test: Inhibitory activity on EGFR kinase; assay type: biochemical; settings: ATP 5 μM
Chain of EGFR kinase (P00533 669-1210): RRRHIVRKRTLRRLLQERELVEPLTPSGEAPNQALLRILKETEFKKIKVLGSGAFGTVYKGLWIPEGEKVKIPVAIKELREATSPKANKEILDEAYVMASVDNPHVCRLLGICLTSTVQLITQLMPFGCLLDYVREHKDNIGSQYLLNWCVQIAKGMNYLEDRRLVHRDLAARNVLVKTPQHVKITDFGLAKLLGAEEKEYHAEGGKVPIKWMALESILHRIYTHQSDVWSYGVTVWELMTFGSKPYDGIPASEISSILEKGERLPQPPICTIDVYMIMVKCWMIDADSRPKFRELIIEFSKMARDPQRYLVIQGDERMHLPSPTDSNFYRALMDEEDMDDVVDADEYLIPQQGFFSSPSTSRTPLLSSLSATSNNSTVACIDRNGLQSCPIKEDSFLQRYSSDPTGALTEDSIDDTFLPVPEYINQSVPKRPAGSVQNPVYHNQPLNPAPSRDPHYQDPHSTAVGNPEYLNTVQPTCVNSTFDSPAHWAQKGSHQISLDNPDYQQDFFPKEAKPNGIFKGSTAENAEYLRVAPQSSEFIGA
Experimental: The Assay Buffer was prepared, and the composition of the Assay Buffer was 50 mM Hepes (Gibco, 15630), 10 mM MgCl2, 2 mM DTT, 1 mM EGTA, and 0.010% Tween 20. EGFR kinase (Carna, 08-115), ATP (Sigma, A7699), and ULight-poly GT (PE, TRF0100-M) working solutions were prepared using the Assay Buffer. EDTA and Eu-labeled anti-phosphotyrosine (PT66) antibody (PE, AD0069) working solutions were prepared using the Detection Buffer. 6 μL of EGFR kinase at the corresponding concentration (final concentration: 0.006 ng/μL) was added to the compound groups and the control group, while 6 μL of the Assay Buffer was added to the blank group, and then the compounds (with the concentration set to 1000 nM at the maximum, 4-fold dilution, 7 concentration gradients) were added using a nanoliter pipettor. The mixture was incubated at room temperature for 30 min, and then 4 μL of the mixture of ATP (final concentration: 5 μM) and ULight-poly GT (final concentration: 100 nM) was added. After incubation at room temperature for 2 h, 5 μL of EDTA (final concentration: 10 mM) was added to stop the reaction, and finally 5 μL of antibody (final concentration: 2 nM) was added. After incubation at room temperature for 1 h, signal values were detected at 665/615 nM, the four-parameter analysis was performed, the dose-response curves were fit, and IC50 was calculated.

Chain of BTK(WT) kinase (Q06187 whole entry): as the sequence (Q06187 whole entry C481S) above, with S481C counted along it

| IC50 (BTK(WT) kinase) [nM] | IC50 (BTK(C481S) kinase) [nM] | DC50 (BTK; OCI-LY10 cells) [nM] | Dmax (BTK; maximum degradation rate) [%] | IC50 (EGFR kinase) [nM] | BTK degradation in OCI-LY10 cells Dmax (BTK; OCI-LY10 cells, maximum degradation rate) [%] | Structure (SMILES) |
| --- | --- | --- | --- | --- | --- | --- |
| 7.1 | 19.6 | < 0.098 | 99 | 3320 | – | CN1CCN([C@@H]2CCCN(c3cnc(C(N)=O)c(Nc4ccc(C5CCN(C6CN(c7ccc8c(C9CCC(=O)NC9=O)noc8c7)C6)CC5)cc4)n3)C2)C1=O (some centres unmarked) [Compound 10] |
| 0.96 | 9 | < 0.098 | 97 | 109 | – | CN1CCN([C@@H]2CCCN(c3cnc(C(N)=O)c(Nc4ccc(N5CCC(CN6CCc7ccc8c(C9CCC(=O)NC9=O)noc8c7CC6)CC5)cc4)n3)C2)C1=O (some centres unmarked) [Compound 27] |
| 11 | 22 | – | – | 785 | >90 | CN1CCN([C@@H]2CCCN(c3cnc(C(N)=O)c(Nc4ccc(C5CCC(N6Cc7ccc8c(C9CCC(=O)NC9=O)noc8c7C6)CC5)cc4)n3)C2)C1=O (some centres unmarked) [Compound 33] |
